Results reported in patent publication EP1285920A1, “C10 Ester sustituted taxanes as antitumor agents” (Florida State University Research Foundation, Inc., priority 2001, dated 2003).
Like-named read-outs stand apart in the source and are kept apart here.

Legend:
[1] = tested on: A2780 ovarian carcinoma; details: for Toxic Deaths / Survivors: number of mice, i.v. qd x 1 at estimated MTD (Taxol 24 mg/kg, Taxotere 70 mg/kg, 0983 72.6 mg/kg), 5 mice/group (Taxotere 6); for Survivors: Day 60
Method: Dosing was initiated on Day 1. […] Taxotere was given i.v. on a qd x 1 schedule at a dose of 70 mg/kg. […] The study was terminated on Day 60. Treatment groups are detailed in Table 7.

[2] = tested on: HCT116 carcinoma; details: for Toxic Deaths: mg/kg: Taxol 36 (split doses), 0503 72.6, 0536 49, 0663 159, 0670 123, 0687 159, 0706 108, 0908 159, 0947 76.9, 0951 72.6, 0983 72.6, 0999 49, 1003 49, 1011 108
Method: Antitumor compounds were formulated for an i.v. dosing regime and were prepared in the following vehicle: 5% ethanol, 5% Cremophor and 90% isotonic saline.
(§1) The antitumor compounds were given intravenously in a single maximum tolerated dose (MTD) appropriate for each compound. […] The MTDs for the antitumor compounds were calculated from earlier single dose data for mice receiving i.v. administration of these compounds. All vehicle control animals in the split dosing regimes were dosed twice intravenously with half of the total volume being given separated by one hour. The study was terminated on Day 60.
A complete response is obtained if the tumor is not palpable at the end of the study.

[3] = tested on: MX-1 carcinoma; details: for Toxic Deaths: mg/kg: Taxol 36 (split dose), 0503 72.6, 0536 49, 0663 159, 0670 123, 0687 159, 0706 108, 0908 159, 0947 76.9, 0951 72.6, 0983 67.4, 0999 49, 1003 49, 1011 108
Method: Thirteen antitumor compounds were formulated for an i.v. dosing regime (single i.v. bolus, qd x 1 schedule) prepared in the following vehicle: 5% ethanol, 5% Cremophor and 90% isotonic saline.
as §1, with “half” for “half of”
A complete response is obtained if the tumor is not palpable at the end of the study. […]

[4] = tested on: HCT116; assay: In Vitro cytotoxicity measured by the cell colony formation assay; type: cell-based, human; details: Homo sapiens, HCT-116; read-out: IN VITRO ID 50 HCT116
Outline: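 Four hundred cells per dish in McCoy's 5a medium with 10% FBS were allowed to attach for 5 h at 37 °C. They were then exposed to compound for 72 h at 37 °C, added as a 10× stock made fresh in medium. After HBSS rinsing and refeeding, colonies were counted after 7 days.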

[5] = tested on: VM46 colon carcinoma
Method: Dosing was initiated on Day 1. […] Taxotere was given i.v. at a dose of 70 mg/kg on a qd x 1 schedule.

[6] = A2780, i.v. qd x 1, five mice per group
[7] = number of 5 mice, i.v. qd x 1 at MTD, Day 60, doses as in E3
[8] = number of 5 mice, i.v. qd x 1 at MTD, Day 60
[9] = number of 6 mice, i.v. qd x 1 at MTD, Day 60, doses as in E17
[10] = number of 6 mice, i.v. qd x 1 at MTD, Day 60
[11] = i.v. qd x 1 at MTD, 5 mice/group, Day 60, doses as in E3
[12] = number of 5 mice, tumor did not reach 2.0 g by end of study, i.v. qd x 1 at MTD, Day 60, doses as in E3
[13] = number of 5 mice, tumor not palpable at end of study, i.v. qd x 1 at MTD, Day 60, doses as in E3
[14] = number of 5 mice, tumor smaller than on Day 1, i.v. qd x 1 at MTD, Day 60, doses as in E3
[15] = i.v. qd x 1 at MTD, 6 mice/group, Day 60, doses as in E17
[16] = number of 6 mice, tumor did not reach 2.0 g by end of study, i.v. qd x 1 at MTD, Day 60, doses as in E17
[17] = number of 6 mice, tumor not palpable at end of study, i.v. qd x 1 at MTD, Day 60, doses as in E17
[18] = number of 6 mice, tumor smaller than on Day 1, i.v. qd x 1 at MTD, Day 60, doses as in E17
[19] = number of mice, i.v. qd x 1, mg/kg: Taxol 24, 0499 77, 0503 72.6, 0670 123.1, 0706 107.6, 0838 72.6, 0854 46.6, 0983 67.4, Taxotere 70, 6 mice/group, Day 64

Structure (SMILES)	partial responses [1, 6]	total response rate [1, 6]	Mean Score ([1]; iv, 72.6 mg/kg)	Complete Response ([1]; iv, 72.6 mg/kg, 1440 h)	Partial Respons ([1]; iv, 72.6 mg/kg, 1440 h)	Stable Disease ([1]; iv, 72.6 mg/kg, 1440 h)	Toxic Deaths [1]	Partial Response ([2]; iv)	Complete Response ([2]; iv, 1440 h)	Mean Score ([2]; iv, 1440 h)	Stable Disease ([2]; iv, 1440 h)	Survivors [2, 7]	Toxic Deaths [2, 8]	Partial Response ([3]; iv)	Complete Response ([3]; iv, 1440 h)	Mean Score ([3]; iv, 1440 h)	Stable Disease ([3]; iv, 1440 h)	Survivors [3, 9]	Toxic Deaths [3, 10]	IC50 [4] [nM]	other results
CCCC(=O)O[C@H]1C(=O)[C@@]2(C)[C@H]([C@H](OC(=O)c3ccccc3)[C@]3(O)C[C@H](OC(=O)[C@H](O)[C@H](C=C(C)C)NC(=O)OC(C)(C)C)C(C)=C1C3(C)C)[C@]1(OC(C)=O)CO[C@@H]1C[C@@H]2O [Compound 0947]	2	at least 20%	4.8 ± 1.8	0	2	0	1	4	1	9.2 ± 0.2	0	5	0	0	3	5.5 ± 2.1	0	3	2	< 1	MDS (n) ([1]; iv, 72.6 mg/kg, 1440 h): 32.7 ± 5.4 (2) days; Survivors [1]: 2
CCCC(=O)O[C@H]1C(=O)[C@@]2(C)[C@H]([C@H](OC(=O)c3ccccc3)[C@]3(O)C[C@H](OC(=O)[C@H](O)[C@@H](NC(=O)OC(C)(C)C)c4ccccn4)C(C)=C1C3(C)C)[C@]1(OC(C)=O)CO[C@@H]1C[C@@H]2O [Compound 0951]	–	–	–	–	–	–	–	–	–	–	–	5	0	–	–	–	–	6	0	< 1	antitumor activity ([1]; A2780, i.v. qd x 1): no tumor shrinkage; survival extension compared to Group 1 controls ([1]; A2780, i.v. qd x 1): 269%; MDS ([1]; A2780, i.v. qd x 1 (compounds estimated MTD; Taxol 24 mg/kg split; Taxotere 70 mg/kg), days until tumor 2.0 g, ended Day 60): 43.2 days; Stable Disease [1, 6]: one; Mean Score [2, 11]: 9.6 ± 0.2; Stable Disease [2, 12]: 0; Complete Response [2, 13]: 3; Partial Response [2, 14]: 2; treated animals with durable complete responses and partial responses ([3]; MX-1, single i.v. MTD): 100%; Mean Score [3, 15]: 9.5 ± 0.5; Stable Disease [3, 16]: 0; Complete Response [3, 17]: 5; Partial Response [3, 18]: 1
CCCC(=O)O[C@H]1C(=O)[C@@]2(C)[C@H]([C@H](OC(=O)c3ccccc3)[C@]3(O)C[C@H](OC(=O)[C@H](O)[C@@H](NC(=O)OC(C)(C)C)c4ccco4)C(C)=C1C3(C)C)[C@]1(OC(C)=O)CO[C@@H]1C[C@@H]2O [Compound 0983]	–	–	0 ± 0	0	0	0	5	1	2	5.8 ± 2.4	0	3	2	0	6	10 ± 0	0	6	0	< 1	Survivors [1]: 0; group mean weight losses ([2]; HCT116, single i.v. MTD, Days 6-10): over 20%; response rate ([5]; VM46, i.v. qd x 1 at estimated MTD): 0%; Mean Score ([5]; iv): 1.7 ± 0.8; MDS (n) ([5]; iv, 1536 h): 56.0 ± 6.8 (2) days; Toxic Deaths ([5]; number of mice, i.v. qd x 1, mg/kg: Taxol 24, 0499 77, 0503 72.6, 0670 123.1, 0706 107.6, 0838 72.6, 0854 46.6, 0983 67.4, Taxotere 70, 6 mice/group): 3; Complete Response [5, 19]: 0; Partial Response [5, 19]: 0; Stable Disease [5, 19]: 1; Survivors [5, 19]: 1
CCCC(=O)O[C@H]1C(=O)[C@@]2(C)[C@H]([C@H](OC(=O)c3ccccc3)[C@]3(O)C[C@H](OC(=O)[C@H](O)[C@@H](NC(=O)OC(C)(C)C)c4ccoc4)C(C)=C1C3(C)C)[C@]1(OC(C)=O)CO[C@@H]1C[C@@H]2O [Compound 0999]	–	at least 20%	–	–	–	–	–	–	–	–	–	5	0	–	–	–	–	5	0	< 1	Mean Score [2, 11]: 9.2 ± 0.2; Stable Disease [2, 12]: 0; Complete Response [2, 13]: 1; Partial Response [2, 14]: 4; Mean Score [3, 15]: 8.2 ± 1.2; Stable Disease [3, 16]: 0; Complete Response [3, 17]: 4; Partial Response [3, 18]: 1
CCCC(=O)O[C@H]1C(=O)[C@@]2(C)[C@H]([C@H](OC(=O)c3ccccc3)[C@]3(O)C[C@H](OC(=O)[C@H](O)[C@@H](NC(=O)OC(C)(C)C)c4cccs4)C(C)=C1C3(C)C)[C@]1(OC(C)=O)CO[C@@H]1C[C@@H]2O [Compound 1003]	2	at least 20%	–	–	–	–	–	3	2	9.4 ± 0.2	0	5	0	0	4	7.3 ± 1.7	0	4	0	< 1	MDS (n) ([3]; iv, 1440 h): 29.1 ± 10.8 (2) days
